Test results taken from the NIST ThermoML archive (doi:10.1021/je0602521).
± gives the expanded uncertainty stated by the source.

Legend:
[1] = 298.15 K; 101.33 kPa; Liquid
[2] = refractive index (Na D-line) (dimensionless); settings: 298.15 K; 101.33 kPa; Liquid; Standard Abbe refractometry

Compound	mass density [1]	refractive index [2]
CO [methanol]	786.46 ± 0.26 kg/m3	
CCO [ethanol]		1.35941 ± 0.00068
